Results reported in US20260092076A1, “NOVEL COMPOUNDS” (Hoffmann-La Roche Inc., priority 2023, published 2026).
Counter-ions that a name gives are not always drawn.

What was measured:
[1] = molecular target: T1, NLRP3 (Homo sapiens, UniProt Q96P20); assay: Human whole blood IL-1β release assay; assay type: cell-based; conditions: human whole blood with 1 μg/ml LPS, compound 3 hours, nigericin 10 μM 1 hr, IL-1β by AlphaLisa
Procedure: For systemic delivery, the ability to inhibit NLRP3 when the compounds are present within the bloodstream is of great importance. For this reason, the NLRP3 inhibitory activity of a number of compounds in human whole blood was investigated in accordance with the following protocol. • Human whole blood in Li-heparin tubes was obtained from healthy donors from a volunteer donor panel. • Plate out 80 μl of whole blood containing 1 μg/ml of LPS in 96-well, clear bottom cell culture plate (Corning #3585) • Add 10 μl compound (8 points half-log dilution with 10 μM top dose) or vehicle (DMSO 0.1% FAC) to the appropriate wells • Incubate for 3 hours at 37° C., 5% CO2 • Add 10 μl nigericin (Sigma #N7143) (10 μM FAC) to all wells • Incubate for 1 hr at 37° C., 5% CO2 • At the end of the incubation period, spin plates at 300×g for 5 mins to pellet cells and remove 20 μl of supernatant and add to 96-well v-bottom plates for IL-1β analysis (note: these plates containing the supernatants can be stored at −80° C. to be analysed at a later date) • IL-1β was measured according to the manufacturer protocol (Perkin Elmer-AlphaLisa IL-1 Kit AL220F-5000) • IC50 data is fitted to a non-linear regression equation (log inhibitor vs response-variable slope 4-parameters)

[2] = molecular target: T1, NLRP3; assay: THP-1 cells pyroptosis assay; assay type: cell-based; parameters: Seed THP-1 cells (25,000 cells/well) containing 1.0 μg/ml LPS in 40 μl of RPMI medium; host or cells: THP-1 cells, LPS-primed, nigericin-stimulated; conditions: THP-1 cells with 1.0 μg/ml LPS, compound 3 hours, nigericin 5 μM 1 hr, resazurin readout
Procedure: THP-1 cells (ATCC #TIB-202) were grown in RPMI containing L-glutamine (Gibco #11835) supplemented with 1 mM sodium pyruvate (Sigma #S8636) and penicillin (100 units/ml)/streptomycin (0.1 mg/ml) (Sigma #P4333) in 10% Fetal Bovine Serum (FBS) (Sigma #F0804). The cells were routinely passaged and grown to confluency (˜10^6 cells/ml). On the day of the experiment, THP-1 cells were harvested and resuspended into RPMI medium (without FBS). The cells were then counted and viability (>90%) checked by Trypan blue (Sigma #T8154). Appropriate dilutions were made to give a concentration of 625,000 cells/ml. To this diluted cell solution was added LPS (Sigma #L4524) to give a 1 μg/ml Final Assay Concentration (FAC). 40 μl of the final preparation was aliquoted into each well of a 96-well plate. The plate thus prepared was used for compound screening.
The following method step-by-step assay was followed for compound screening. • Seed THP-1 cells (25,000 cells/well) containing 1.0 μg/ml LPS in 40 μl of RPMI medium (without FBS) in 96-well, black walled, clear bottom cell culture plates coated with poly-D-lysine (VWR #734-0317) • Add 5 μl compound (8 points half-log dilution, with 10 μM top dose) or vehicle (DMSO 0.1% FAC) to the appropriate wells • Incubate for 3 hours at 37° C., 5% CO2 • Add 5 μl nigericin (Sigma #N7143) (FAC 5 μM) to all wells • Incubate for 1 hr at 37° C., 5% CO2 • At the end of the incubation period, spin plates at 300×g for 3 mins and remove supernatant • Then add 50 μl of resazurin (Sigma #R7017) (FAC 100 μM resazurin in RPMI medium without FBS) and incubate plates for a further 1-2 hours at 37° C. and 5% CO2 • Plates were read in an Envision reader at Ex 560 nm and Em 590 nm • IC50 data is fitted to a non-linear regression equation (log inhibitor vs response-variable slope 4-parameters)

T1 sequence (Q96P20 whole entry): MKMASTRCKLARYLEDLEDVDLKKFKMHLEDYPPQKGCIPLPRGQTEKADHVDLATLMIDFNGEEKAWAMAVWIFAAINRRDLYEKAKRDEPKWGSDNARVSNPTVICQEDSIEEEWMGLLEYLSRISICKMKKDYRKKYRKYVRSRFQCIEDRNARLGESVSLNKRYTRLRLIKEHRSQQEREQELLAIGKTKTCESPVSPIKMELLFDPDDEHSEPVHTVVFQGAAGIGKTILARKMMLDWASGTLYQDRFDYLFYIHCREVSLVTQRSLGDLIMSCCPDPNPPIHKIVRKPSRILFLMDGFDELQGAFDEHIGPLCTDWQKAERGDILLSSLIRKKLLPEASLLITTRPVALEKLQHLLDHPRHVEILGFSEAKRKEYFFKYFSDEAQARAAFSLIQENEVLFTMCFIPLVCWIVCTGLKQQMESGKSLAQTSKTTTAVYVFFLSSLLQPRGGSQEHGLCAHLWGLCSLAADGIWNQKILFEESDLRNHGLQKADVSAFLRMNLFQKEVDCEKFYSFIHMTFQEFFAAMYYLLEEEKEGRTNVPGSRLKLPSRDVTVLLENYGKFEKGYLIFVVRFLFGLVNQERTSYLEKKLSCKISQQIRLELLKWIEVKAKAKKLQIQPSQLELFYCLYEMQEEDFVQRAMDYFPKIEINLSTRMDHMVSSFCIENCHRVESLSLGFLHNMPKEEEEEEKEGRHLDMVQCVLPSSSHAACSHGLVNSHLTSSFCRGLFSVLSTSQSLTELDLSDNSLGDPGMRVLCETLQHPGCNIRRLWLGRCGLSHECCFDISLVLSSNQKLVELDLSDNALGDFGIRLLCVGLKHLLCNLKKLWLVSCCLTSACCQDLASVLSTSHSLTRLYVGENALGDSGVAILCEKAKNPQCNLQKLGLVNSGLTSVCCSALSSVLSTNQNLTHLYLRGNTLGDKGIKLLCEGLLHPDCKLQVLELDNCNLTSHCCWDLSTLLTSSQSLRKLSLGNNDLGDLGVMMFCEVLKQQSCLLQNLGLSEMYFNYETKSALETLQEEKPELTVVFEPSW

IC50 [1] [nM] | IC50 [2] [nM] | SMILES
≥ 10000 | 20.7 | Cc1cc(C(F)(F)F)cc(O)c1-c1ccc2oc(N3Cc4cc(=O)n(C)nc4C3)nc2n1 [Example 22, 6-[5-[2-Hydroxy-6-methyl-4-(trifluoromethyl)phenyl]oxazolo[4,5-b]pyridin-2-yl]-2-methyl-5,7-dihydropyrrolo[3,4-c]pyridazin-3-one]
1960 | 22.3 | Cc1cc(C(F)(F)F)cc(O)c1-c1ccc2oc(N3Cc4ccc(=O)n(C)c4C3)nc2n1 [Example 21, 6-[5-[2-Hydroxy-6-methyl-4-(trifluoromethyl)phenyl]oxazolo[4,5-b]pyridin-2-yl]-1-methyl-5,7-dihydropyrrolo[3,4-b]pyridin-2-one]
676 | 71.1 | Cc1cc(Cl)cc(O)c1-c1ccc2oc(N3CCc4[nH]c(=O)ccc4C3)nc2n1 [Example 37, 6-[5-(4-Chloro-2-hydroxy-6-methyl-phenyl)oxazolo[4,5-b]pyridin-2-yl]-1,5,7,8-tetrahydro-1,6-naphthyridin-2-one]
142 | 25.6 | Cc1cc(Cl)cc(O)c1-c1ccc2oc(N3CCc4n[nH]cc4C3)nc2n1 [Example 25, 5-Chloro-3-methyl-2-[2-(2,4,6,7-tetrahydropyrazolo[4,3-c]pyridin-5-yl)oxazolo[4,5-b]pyridin-5-yl]phenol]
128 | 1.7 | Cc1cc(C(F)(F)F)cc(O)c1-c1cnc2oc(N3Cc4cnc(O)cc4C3)nc2n1 [Example 43, 2-[5-[2-Hydroxy-6-methyl-4-(trifluoromethyl)phenyl]oxazolo[4,5-b]pyrazin-2-yl]-1,3-dihydropyrrolo[3,4-c]pyridin-6-ol; 2,2,2-trifluoroacetic acid]
192 | 23.6 | Cc1cc(C(F)(F)F)cc(O)c1-c1ccc2oc(N3CCc4ncncc4C3)nc2n1 [Example 24, 2-[2-(7,8-Dihydro-5H-pyrido[4,3-d]pyrimidin-6-yl)oxazolo[4,5-b]pyridin-5-yl]-3-methyl-5-(trifluoromethyl)phenol]
304 | 15 | Cc1cc(Cl)cc(O)c1-c1ccc2oc(N3Cc4cncnc4C3)nc2n1 [Example 13, 5-Chloro-2-[2-(5,7-dihydropyrrolo[3,4-d]pyrimidin-6-yl)oxazolo[4,5-b]pyridin-5-yl]-3-methyl-phenol formic acid salt]
168 | 46.3 | Cc1cc(Cl)cc(O)c1-c1ccc2oc(N3CCc4[nH]c(=O)ncc4C3)nc2n1 [Example 36, 6-[5-(4-Chloro-2-hydroxy-6-methyl-phenyl)oxazolo[4,5-b]pyridin-2-yl]-1,5,7,8-tetrahydropyrido[4,3-d]pyrimidin-2-one]
173 | 10.5 | Cc1cc(Cl)cc(O)c1-c1ccc2oc(N3CCc4ccncc4C3)nc2n1 [Example 15, 5-Chloro-2-[2-(3,4-dihydro-1H-2,7-naphthyridin-2-yl)oxazolo[4,5-b]pyridin-5-yl]-3-methyl-phenol]
77 | 1.7 | Cc1cc(Cl)cc(O)c1-c1ccc2oc(N3Cc4c[nH]c(=O)cc4C3)nc2n1 [Example 4, 2-[5-(4-Chloro-2-hydroxy-6-methyl-phenyl)oxazolo[4,5-b]pyridin-2-yl]-3,5-dihydro-1H-pyrrolo[3,4-c]pyridin-6-one]
166 | 46.7 | Cc1cc(C(F)F)cc(O)c1-c1ccc2oc(N3CCc4ncncc4C3)nc2n1 [Example 26, 5-(Difluoromethyl)-2-[2-(7,8-dihydro-5H-pyrido[4,3-d]pyrimidin-6-yl)oxazolo[4,5-b]pyridin-5-yl]-3-methyl-phenol]
840 | 2 | COc1cc2c(cn1)CN(c1nc3nc(-c4c(C)cc(C(F)(F)F)cc4O)ccc3o1)C2 [Example 12, 2-[2-(6-Methoxy-1,3-dihydropyrrolo[3,4-c]pyridin-2-yl)oxazolo[4,5-b]pyridin-5-yl]-3-methyl-5-(trifluoromethyl)phenol]
305 | 56.2 | Cc1cc(Cl)cc(O)c1-c1ccc2oc(N3Cc4c[nH]nc4C3)nc2n1 [Example 14, 5-Chloro-2-[2-(4,6-dihydro-2H-pyrrolo[3,4-c]pyrazol-5-yl)oxazolo[4,5-b]pyridin-5-yl]-3-methyl-phenol]
285 | 24.9 | COc1ncc2c(n1)CCN(c1nc3nc(-c4c(C)cc(Cl)cc4O)ccc3o1)C2 [Example 32, 5-Chloro-2-[2-(2-methoxy-7,8-dihydro-5H-pyrido[4,3-d]pyrimidin-6-yl)oxazolo[4,5-b]pyridin-5-yl]-3-methyl-phenol]
151 | 2.6 | Cc1cc(C(F)(F)F)cc(O)c1-c1ccc2oc(N3Cc4cc(=O)n(CCO)cc4C3)nc2n1 [Example 5, 5-(2-Hydroxyethyl)-2-[5-[2-hydroxy-6-methyl-4-(trifluoromethyl)phenyl]oxazolo[4,5-b]pyridin-2-yl]-1,3-dihydropyrrolo[3,4-c]pyridin-6-one]
225 | 34.9 | Cc1cc(C#N)cc(O)c1-c1ccc2oc(N3CCc4ncncc4C3)nc2n1 [Example 17, 4-[2-(7,8-Dihydro-5H-pyrido[4,3-d]pyrimidin-6-yl)oxazolo[4,5-b]pyridin-5-yl]-3-hydroxy-5-methyl-benzonitrile]
168 | 22 | Cc1cc(Cl)cc(O)c1-c1ccc2oc(N3Cc4cc(=O)[nH]nc4C3)nc2n1 [Example 38, 6-[5-(4-chloro-2-hydroxy-6-methyl-phenyl)oxazolo[4,5-b]pyridin-2-yl]-5,7-dihydro-2H-pyrrolo[3,4-c]pyridazin-3-one]
